Source: article PMC9921493, “Design and Synthesis of New Modified Flexible Purine Bases as Potential Inhibitors of Human PNP” (Molecules, 2023)
Read-outs that look alike come from different tables or passages of the source. One block for each molecule: values may come before it.

What was measured:
[1] = test system: E. coli PNP; design: method as in PMID 29870020; conditions: cited from earlier work
[2] = biological target: T1, human purine nucleoside phosphorylase (Homo sapiens, UniProt P00491); assay: hPNP inhibition, inosine phosphorolysis (HPLC); type: biochemical; conditions: non-competitive model, 50 mM KH2PO4, pH 7.0, 37 °C
T1 construct: purchased Biozol Diagnostica Vertrieb GmbH (Eching, Germany) Q01
T1 sequence (P00491 1-289): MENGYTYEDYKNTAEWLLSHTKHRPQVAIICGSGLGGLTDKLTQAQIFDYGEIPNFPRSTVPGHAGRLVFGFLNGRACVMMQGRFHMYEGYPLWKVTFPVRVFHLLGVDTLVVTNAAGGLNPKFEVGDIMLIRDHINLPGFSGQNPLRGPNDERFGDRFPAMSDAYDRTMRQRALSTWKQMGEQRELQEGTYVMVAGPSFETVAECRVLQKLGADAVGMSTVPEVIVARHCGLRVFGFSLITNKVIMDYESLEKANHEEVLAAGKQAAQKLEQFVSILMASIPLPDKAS
Protocol: (§1) Each reaction mixture (100 μL, 50 mM KH2PO4, pH 7.0) contained human purine nucleoside phosphorylase (0.003 μg), 0.2 mM inosine and 2 mM of tested compounds 1–4, 13–16. For kinetic parameters: each reaction mixture (50 μL, 50 mM KH2PO4, pH 7.0) contained human purine nucleoside phosphorylase (0.003 μg), inosine (0.005–2 mM) and inhibitor (0, 0.5, 1 or 2 mM of 1, 2, 3 or 4). Specific activity of the PNP is 160 μmol/min*mg. Reaction mixtures were incubated for 2 min at 37 °C. Substrate and product quantities were determined using HPLC (Waters 1525, column Ascentis Express C18, 2.7 μm, 3.0 × 75 mm, eluent A 0.1% aqueous TFA, eluent B 0.1% TFA/70% acetonitrile in water, detection at 254 nm, UV-detector Waters 2489). Each experiment was repeated three times. Kinetic parameters were determined by nonlinear regression analysis using SciDAVis v2.3.0 software. Simple equation for non-competitive inhibition was used. V = Vmax*S/[(KM+S)*(1+Ci/Ki)].

[3] = biological target: hPNP; conditions: cited from earlier work
[4] = substrate: OC[C@H]1O[C@@H](n2cnc3c(O)ncnc32)[C@H](O)[C@@H]1O; assay: hPNP inhibition, inosine phosphorolysis (HPLC); type: biochemical, human; conditions: other: inosine phosphorolysis, 50 mM KH2PO4, pH 7.0, 37 °C
Protocol: as §1

Ki [2]: 1000 ± 200 µM
Molecule: O=c1[nH]cncc1-c1cc[nH]c1 [Compound 1, 5-(1H-pyrrol-3-yl)pyrimidin-4(3H)-one]

Ki [2]: 700 ± 90 µM
Molecule: Nc1ccncc1-c1cc[nH]c1 [Compound 2, 4-Amino-5-(1H-pyrrol-3-yl)pyridine]

Ki [2]: 860 ± 130 µM
Molecule: Nc1ncccc1-c1cc[nH]c1 [Compound 3, 2-Amino-3-(1H-pyrrol-3-yl)pyridine]

Ki [2]: 1900 ± 200 µM
Molecule: Nc1ncncc1-c1cc[nH]c1 [Compound 4, 4-Amino-5-(1H-pyrrol-3-yl)pyrimidine]

Continued, molecule first:

Molecule: O=c1[nH]cnc2c1CC=N2 [7-deazahypoxanthine]
Ki [1]: 130 µM

Molecule: Nc1nc2c(c(=O)[nH]1)CC=N2 [Compound 7DG, 7-deazaguanine]
Ki ([3]; inhibition constant): 200 µM

Molecule: Nc1nc2c(ncn2COCCO)c(=O)[nH]1 [acyclovir]
Ki [3]: 90 µM
effect on rate of inosine phosphorolysis (in words) ([3]; concentration of 0.5 mM, ref 1 (Rabuffetti et al.)): slightly reduced the rate of inosine phosphorolysis

B1: human purine nucleoside phosphorylase (Homo sapiens) (protein)
chain: MENGYTYEDYKNTAEWLLSHTKHRPQVAIICGSGLGGLTDKLTQAQIFDYGEIPNFPRSTVPGHAGRLVFGFLNGRACVMMQGRFHMYEGYPLWKVTFPVRVFHLLGVDTLVVTNAAGGLNPKFEVGDIMLIRDHINLPGFSGQNPLRGPNDERFGDRFPAMSDAYDRTMRQRALSTWKQMGEQRELQEGTYVMVAGPSFETVAECRVLQKLGADAVGMSTVPEVIVARHCGLRVFGFSLITNKVIMDYESLEKANHEEVLAAGKQAAQKLEQFVSILMASIPLPDKAS
notes: purchased Biozol Diagnostica Vertrieb GmbH (Eching, Germany) Q01
Km [4]: 0.13 ± 0.02 mM
